Source: US20240238246A1, “METHODS FOR PREVENTING OR SLOWING THE PROGRESSION OF COGNITIVE DECLINE OR IMPAIRMENT IN SUBJECTS” (AGENEBIO, INC., priority 2023, published 2024)

Columns and labels:
[1] = system: subjects with MCI due to Alzheimer's disease; assay: Phase IIb placebo-controlled 78-week study, Clinical Dementia Rating-Sum of Boxes (CDR-SB); format: in vivo, human
Method: (§1) This example describes a phase IIb multicenter, randomized, double-blind, placebo-controlled study evaluating the efficacy and safety of a low-dose levetiracetam, 220 mg, extended-release tablet on slowing progression of MCI due to Alzheimer's disease (prodromal Alzheimer's disease), the results being evaluated using the well-recognized and accepted Clinical Dementia Rating-Sum of Boxes (CDR-SB) scores.
(§2) Subjects for this study were between 55 and 85 years old (inclusive) in good general health, willing and able to consent and to participate for the duration of the study, having an eighth-grade education or good work history sufficient to exclude mental retardation, having visual and auditory acuity adequate for neuropsychological testing, and having proficient fluency of the native local language to participate in all the neuropsychological test assessments. The clinical assessments of 63 participants were used for the analyses.
Blood samples were taken from each subject to determine APOE4 carrier status. Genomic DNA was prepared from the blood samples according to standard procedures. Quality of the genomic DNA samples were quantified using Optical Density and DNA purity was calculated. Using extracted genomic DNA as a template, locus specific DNA fragments were amplified by polymerase chain reaction (PCR). Purified PCR products were used as templates for sequencing reactions. According to the chain terminating methodology of Sanger et al (Sanger F, Nicklen S, Coulson A R. DNA sequencing with chain-terminating inhibitors. Proc Natl Acad Sci USA. 1977 December; 74(12):5463-7), analysis of DNA sequence was based on the termination of a growing DNA strand due to incorporation of a dye labeled ddNTP by the DNA polymerase. The resulting dye-labeled product was detected using an automated sequencing platform. Data was analyzed using the software SEQPATIENT from JSI-medical Systems®.
(§3) The study included up to a 5-week screening period consisting of 3 visits and a 78-week treatment period consisting of 10 visits (1 baseline visit, 3 telephone call visits, and 6 clinic visits). The primary endpoint of the study was the analysis of the change in CDR-SB score from baseline to 78 weeks. Secondary endpoints included the analysis of the change in Functional Activities Questionnaire (FAQ) score from baseline to 78 weeks. Subjects received a low-dose levetiracetam, 220 mg, extended-release tablet or placebo in the morning in identically appearing extended release, one unit oral dosage forms.
CDR-SB testing was performed using standard methods. Briefly, subjects were tested using the following six categories or “boxes”: Memory, Orientation, Judgment and Problem Solving, Community Affairs, Home and Hobbies, and Personal Care. CDR-SB scores were calculated by adding the box scores. The total score ranges from 0 to 18 with a higher scores indicating more impairment). Absolute values and changes from baseline in CDR-SB were summarized using descriptive statistics and presented by APOE4 non-carrier status. Table 3 summarizes the statistical analysis wherein each cell contains a point estimate followed by a 95% Confidence Interval (CI).

[2] = system: subjects with MCI due to Alzheimer's disease; assay: Phase IIb placebo-controlled 78-week study, Functional Activities Questionnaire (FAQ) score; format: in vivo, human
Method: as §1, §2, §3
FAQ scores were obtained to measure the functional ability of individuals over time. Briefly, FAQ measures instrumental activities of daily life, such as preparing meals and balancing a check book as these functional changes are found earlier in the dementia process compared to more basic activities. The Questionnaire comprises 10 questions which are answered using a 0-3 scoring system for each question with 0 being normal and 3 being dependent on someone else to complete the task. […]

[3] = system: entorhinal cortex (ERC) and Brodmann area 35 (BA35) volume in APOE-4 non-carriers; assay: Volumetric MRI of medial temporal lobe subregions (ASHS-T1 segmentation) in the phase IIb study; format: in vivo, human; conditions: APOE-4 non-carriers (n=26), baseline to week 78
Description: Brain regions of interest were selected prior to the trial apriori based on the location of post-mortem tau accumulation in the early stage of AD (Braak et al., Acta Neuropathologica, 112(4): 389-404 (2006); Braak & Braak, Acta Neuropathologica, 80(5): 479-486 (1990)) and robust atrophy in entorhinal cortex volume in the AD. For this purpose, the Automated Segmentation of Hippocampal Subfields (ASHS) software (Xie et al., Hum Brain Mapp. 40:3431-3451 (2019)) was used. Regions provided by this software include the left and right entorhinal cortex (ERC), Brodmann area 35 (BA35), which largely overlaps with TEC (Braak et al., Acta Neuropathologica, 112(4): 389-404 (2006); Braak & Braak, Acta Neuropathologica, 80(5): 479-486 (1990))) and includes a portion of the perirhinal cortex and BA36, which predominantly encompasses the perirhinal cortex (Xie et al., 2019). High-resolution T1-weighted MRI images of the subjects' brain were collected at baseline and 78 weeks using an MRI scanner. Automatic segmentation was performed using the T1-weighted MRI images using the ASHS-T1 open-source software and see, also Xie et al., Hum Brain Mapp. 40:3431-3451 (2019). […] Volumetric and thickness measurements of the ERC and BA35 were extracted for each subject. […]

[4] = cited from earlier work
[5] = APOE-4 non-carrier subgroup (n=26)

CC[C@@H](C(N)=O)N1CCCC1=O [levetiracetam, (2S)-2-(2-oxopyrrolidin-1-yl)butanamide]
CDR-SB Treatment Effect (Difference) versus placebo (point estimate, 95% CI) ([1]; APOE4 non-carriers (n = 63), 78 weeks): −0.56 (CI: −1.90, 0.47)
CDR-SB change score (point estimate, 95% CI) ([1]; APOE4 non-carriers (n = 63), baseline to 78 weeks, 220 mg extended-release tablet): 0.96 (CI: 0.08, 2.01)
Mean CDR-SB change score at Week 78 ([1]; APOE-4 carrier subgroup (n=54)): 0.95
Estimated average treatment effect on CDR-SB change score ([1]; APOE-4 carrier subgroup, Week 78, versus placebo): −0.10
Mean CDR-SB change from baseline at Week 78 [1, 5]: 0.68
Estimated average treatment effect on CDR-SB change score ([1]; APOE-4 non-carrier subgroup, Week 78, versus placebo): −0.45
Mean CDR-SB change score at Week 78 ([1]; entire study population): 1.12
Estimated average treatment effect on CDR-SB change score ([1]; entire study population, Week 78, versus placebo (p=0.71)): −0.10
Mean FAQ total score change from baseline to week 78 ([2]; APOE-4 carrier subgroup (n=54)): 5
Mean FAQ total score change from baseline to week 78 [2, 5]: 1.8
Estimated mean FAQ score from baseline at 78 weeks (95% CI) ([2]; entire study population): 3.82 (95% CI: 2.10, 5.17)
Left ERC mean volume change ([3]; p=0.048 vs placebo): −1.878%
Right BA35 mean volume change ([3]; p=0.094 vs placebo): −0.789%
Time of peak plasma concentrations ([4]; following oral administration): about 1 hour
Plasma half-life ([4]; in vivo): approximately 7±1 hour
Time to achieve steady state ([4]; multiple twice-daily dosing): 2 days
Absorption after oral administration ([4]; oral administration): rapidly and almost completely absorbed
Effect of food on bioavailability ([4]; oral administration): not affected by food
